Measured values reported in patent publication US10457677B2 (priority 2015, dated 2019).
Read-outs that look alike come from different tables or passages of the source.

How the values were obtained:
PI3K p110α/p85α (human) = PI3K p110α/p85α (human) (Homo sapiens (Human), UniProt P42336); experiment: PI3K p110α/p85α (human), non-radioactive assay (HTRF); format: biochemical; details: read-out: IC50 (PI3Kalpha)
PI3K (p120γ) (human) = PI3K (p120γ) (human) (Homo sapiens (Human), UniProt P48736); experiment: PI3K (p120γ) (human), non-radioactive assay (HTRF); format: biochemical; details: read-out: IC50 (PI3Kgamma)
Sequence of PI3K (p120γ) (human) (P48736 whole entry, the tested form may be a part): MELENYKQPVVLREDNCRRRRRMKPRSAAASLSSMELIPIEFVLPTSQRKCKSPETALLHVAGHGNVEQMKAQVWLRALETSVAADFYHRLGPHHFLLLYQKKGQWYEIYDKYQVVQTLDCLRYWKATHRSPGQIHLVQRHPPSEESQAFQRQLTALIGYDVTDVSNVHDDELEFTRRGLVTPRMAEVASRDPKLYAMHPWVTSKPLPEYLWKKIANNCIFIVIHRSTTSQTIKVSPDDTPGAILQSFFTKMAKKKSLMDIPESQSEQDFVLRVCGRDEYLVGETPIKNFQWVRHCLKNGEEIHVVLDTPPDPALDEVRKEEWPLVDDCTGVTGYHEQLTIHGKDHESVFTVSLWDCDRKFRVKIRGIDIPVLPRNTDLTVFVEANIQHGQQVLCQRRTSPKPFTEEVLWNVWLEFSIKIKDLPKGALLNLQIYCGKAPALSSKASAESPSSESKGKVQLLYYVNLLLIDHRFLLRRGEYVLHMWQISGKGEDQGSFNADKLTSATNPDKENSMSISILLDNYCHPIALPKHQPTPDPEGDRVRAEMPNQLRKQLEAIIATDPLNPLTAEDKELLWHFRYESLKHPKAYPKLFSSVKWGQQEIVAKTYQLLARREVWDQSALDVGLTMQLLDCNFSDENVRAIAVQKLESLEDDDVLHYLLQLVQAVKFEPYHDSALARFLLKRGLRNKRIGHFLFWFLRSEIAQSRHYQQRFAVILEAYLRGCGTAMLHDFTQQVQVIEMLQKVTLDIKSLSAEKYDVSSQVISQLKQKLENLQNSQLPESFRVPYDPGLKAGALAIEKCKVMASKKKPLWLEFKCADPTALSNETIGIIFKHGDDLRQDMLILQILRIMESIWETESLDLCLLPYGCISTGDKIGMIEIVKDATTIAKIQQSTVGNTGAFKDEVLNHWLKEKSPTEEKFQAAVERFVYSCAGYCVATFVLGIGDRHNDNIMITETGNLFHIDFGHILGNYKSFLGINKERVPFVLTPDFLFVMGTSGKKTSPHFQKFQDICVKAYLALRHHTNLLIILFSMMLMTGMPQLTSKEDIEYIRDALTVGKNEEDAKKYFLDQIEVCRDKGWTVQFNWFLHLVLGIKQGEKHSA
Procedure, shortened: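 Enzyme was run with 10 μM phosphatidylinositol 4,5-bisphosphate, starting the reaction with MgATP at an unspecified level, for 30 min at room temperature. The stop used EDTA plus biotinylated PIP3, and detection used Eu-anti-GST, GST-GRP1 PH domain and streptavidin-APC. Signal was taken as HTRF = 10000×(Em665nm/Em620nm).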

PI3K p110δ/p85α (human) = PI3K p110δ/p85α (human) (Homo sapiens (Human), UniProt O00329); experiment: PI3K p110δ/p85α (human), non-radioactive assay (HTRF); format: biochemical; details: read-out: IC50 (PI3Kdelta)
Sequence of PI3K p110δ/p85α (human) (O00329 whole entry): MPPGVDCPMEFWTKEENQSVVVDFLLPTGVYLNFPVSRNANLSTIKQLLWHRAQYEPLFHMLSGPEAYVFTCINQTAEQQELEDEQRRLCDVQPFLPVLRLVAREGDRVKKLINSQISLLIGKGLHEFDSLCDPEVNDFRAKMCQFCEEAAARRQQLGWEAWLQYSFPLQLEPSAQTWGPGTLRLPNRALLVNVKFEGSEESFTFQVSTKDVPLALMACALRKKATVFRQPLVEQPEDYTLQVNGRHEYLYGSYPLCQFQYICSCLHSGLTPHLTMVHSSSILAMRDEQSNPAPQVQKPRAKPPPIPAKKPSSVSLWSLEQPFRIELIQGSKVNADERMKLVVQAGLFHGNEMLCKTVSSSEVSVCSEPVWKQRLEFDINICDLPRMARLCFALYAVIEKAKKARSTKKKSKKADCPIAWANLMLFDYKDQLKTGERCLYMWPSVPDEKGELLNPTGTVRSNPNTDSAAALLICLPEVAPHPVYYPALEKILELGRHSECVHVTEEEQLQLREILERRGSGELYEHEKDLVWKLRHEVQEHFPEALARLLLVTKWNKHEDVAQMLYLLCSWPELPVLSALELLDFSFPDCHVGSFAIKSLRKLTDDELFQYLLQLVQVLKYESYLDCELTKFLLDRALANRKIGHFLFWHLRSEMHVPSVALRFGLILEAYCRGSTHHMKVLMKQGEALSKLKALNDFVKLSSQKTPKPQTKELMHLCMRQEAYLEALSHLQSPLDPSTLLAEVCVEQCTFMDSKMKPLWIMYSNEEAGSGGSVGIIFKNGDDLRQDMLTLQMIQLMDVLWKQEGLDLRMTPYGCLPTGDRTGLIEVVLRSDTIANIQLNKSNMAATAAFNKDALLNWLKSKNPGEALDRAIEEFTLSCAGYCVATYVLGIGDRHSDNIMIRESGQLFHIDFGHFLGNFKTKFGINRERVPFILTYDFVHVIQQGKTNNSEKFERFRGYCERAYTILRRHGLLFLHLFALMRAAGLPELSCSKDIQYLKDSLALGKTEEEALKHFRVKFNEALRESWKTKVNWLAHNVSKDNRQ
Sequence of PI3K p110δ/p85α (human) (P27986 whole entry partner): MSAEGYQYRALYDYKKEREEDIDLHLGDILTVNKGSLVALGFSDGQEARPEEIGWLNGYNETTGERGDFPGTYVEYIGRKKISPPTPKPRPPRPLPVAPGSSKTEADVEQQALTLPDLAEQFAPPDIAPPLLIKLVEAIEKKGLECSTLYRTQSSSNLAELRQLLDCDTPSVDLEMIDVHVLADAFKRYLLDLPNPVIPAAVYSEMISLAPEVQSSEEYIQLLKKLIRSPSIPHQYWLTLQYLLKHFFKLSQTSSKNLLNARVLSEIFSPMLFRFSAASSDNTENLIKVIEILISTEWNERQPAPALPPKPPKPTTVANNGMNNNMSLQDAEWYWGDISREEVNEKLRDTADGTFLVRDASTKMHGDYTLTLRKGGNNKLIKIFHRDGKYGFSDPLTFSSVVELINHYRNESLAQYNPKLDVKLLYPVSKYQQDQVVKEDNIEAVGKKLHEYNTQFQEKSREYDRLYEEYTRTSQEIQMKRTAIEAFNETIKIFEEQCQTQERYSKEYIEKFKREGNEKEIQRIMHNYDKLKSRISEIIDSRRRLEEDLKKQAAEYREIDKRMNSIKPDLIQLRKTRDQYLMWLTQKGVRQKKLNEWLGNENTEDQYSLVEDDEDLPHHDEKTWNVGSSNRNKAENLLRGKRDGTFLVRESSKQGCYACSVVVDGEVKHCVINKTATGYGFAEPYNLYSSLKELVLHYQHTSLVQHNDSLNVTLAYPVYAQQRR

mTOR (human) = mTOR (human) (Homo sapiens (Human), UniProt P42345); experiment: mTOR (human) kinase assay, [γ-33P-ATP] filter assay; format: biochemical
Procedure, shortened: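 Radiometric filter assay: enzyme in 50 mM HEPES pH 7.5, 1 mM EGTA, 0.01% Tween 20, 3 mM MnCl2, 2 mg/ml substrate with [γ-33P-ATP], started with MgATP. Incubated 40 min at room temperature, stopped with 3% phosphoric acid; incorporation measured on P30 filtermat by scintillation counting.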

PI3K p110β/p85α (human) = PI3K p110β/p85α (human) (Homo sapiens (Human), UniProt P42338); experiment: PI3K p110β/p85α (human), non-radioactive assay (HTRF); format: biochemical
Sequence of PI3K p110β/p85α (human) (P42338 whole entry): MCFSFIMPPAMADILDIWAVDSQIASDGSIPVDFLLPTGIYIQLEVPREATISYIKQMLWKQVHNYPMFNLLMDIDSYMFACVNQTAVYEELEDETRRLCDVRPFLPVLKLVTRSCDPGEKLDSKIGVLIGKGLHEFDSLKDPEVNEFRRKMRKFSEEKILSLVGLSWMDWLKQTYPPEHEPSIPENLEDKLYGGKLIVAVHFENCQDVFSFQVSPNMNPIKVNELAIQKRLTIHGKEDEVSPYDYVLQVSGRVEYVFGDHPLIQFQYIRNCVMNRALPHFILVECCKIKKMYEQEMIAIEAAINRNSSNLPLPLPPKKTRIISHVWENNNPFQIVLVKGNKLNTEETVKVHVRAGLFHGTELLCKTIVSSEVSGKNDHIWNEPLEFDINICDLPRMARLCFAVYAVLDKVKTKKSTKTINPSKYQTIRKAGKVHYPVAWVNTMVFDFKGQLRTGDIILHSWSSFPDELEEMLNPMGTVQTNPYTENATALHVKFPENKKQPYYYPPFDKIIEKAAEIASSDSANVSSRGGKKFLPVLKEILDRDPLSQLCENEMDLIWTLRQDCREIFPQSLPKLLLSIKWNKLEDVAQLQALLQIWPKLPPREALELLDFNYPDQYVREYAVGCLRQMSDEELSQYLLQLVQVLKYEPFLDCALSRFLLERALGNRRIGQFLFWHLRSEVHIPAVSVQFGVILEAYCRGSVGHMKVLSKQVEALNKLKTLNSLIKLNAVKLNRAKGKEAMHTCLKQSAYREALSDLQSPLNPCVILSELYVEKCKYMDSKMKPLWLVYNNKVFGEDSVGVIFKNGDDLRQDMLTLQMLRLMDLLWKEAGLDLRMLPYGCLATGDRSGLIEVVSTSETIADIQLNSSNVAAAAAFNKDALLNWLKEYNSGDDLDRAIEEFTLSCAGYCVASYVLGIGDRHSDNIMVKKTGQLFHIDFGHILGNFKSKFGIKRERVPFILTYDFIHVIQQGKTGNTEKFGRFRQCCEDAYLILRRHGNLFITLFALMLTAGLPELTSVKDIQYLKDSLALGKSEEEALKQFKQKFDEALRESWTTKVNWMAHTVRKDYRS
Sequence of PI3K p110β/p85α (human) (P27986 whole entry partner): as the sequence (P27986 whole entry partner) above
Description: PI3K p110β/p85α (Human), Non-radioactive Assay
PI3K p110β/p85α (human) was incubated in an assay buffer comprising 10 μM phosphati-dylinositol 4,5-bisphosphate and MgATP (concentration as necessary). The reaction was initiated by addition of MgATP solution. After an incubation time of 30 min at room temperature, the reaction was stopped by addition of a solution consisting of EDTA and biotinylated phosphatidylinositol 3,4,5-trisphosphate. Finally, the detection buffer, consisting of a europium-labelled anti-GST monoclonal antibody, a GST-labelled GRP1 PH domain and streptavidin allophycocyanin, was added. The plate was read out via homogeneous time-resolved fluorescence (HTRF) and the corresponding signals were evaluated via the formula HTRF=10000×(Em665nm/Em620nm).

[1] = target: purified human recombinant ATM (ataxia telangiectasia mutated), full length (Homo sapiens (Human), UniProt Q13315); experiment: ATM kinase assay - determination of ATM inhibition (IC50 ATM), TR-FRET; format: biochemical
Procedure, shortened: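 Full-length enzyme, expressed in a mammalian cell line, pre-incubated 15 min with inhibitor in 25 mM HEPES pH 8.0, 10 mM Mg(CH3COO)2, 1 mM MnCl2, 0,1% BSA, 0,01% Brij 35, 5 mM DTT. Full-length cmyc-p53 (Sf21-expressed) and ATP then added, 30-35 min at 22° C. EDTA stop; p53 S15 phosphorylation read by TR-FRET antibodies.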

[2] = tested on: phosphorylation of CHK2 (phospho-Thr68) in HCT116 cells; experiment: Cellular pCHK2 assay: bleomycin-induced phosphorylation of CHK2 (phospho-Thr68), immunofluorescence high-content analysis; format: cell-based, human; details: Homo sapiens, HCT-116, 4 h, read-out: IC50 (pCHK2)
Procedure, shortened: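 HCT116 cells in DMEM with 10% FCS, incubated overnight at 37° C, then given compounds (1 nM to 30 μM, 0.5% DMSO) together with 10 μM bleomycin. Phospho-Thr68 CHK2 immunostained and imaged by high-content imager; nuclei with pCHK2 above background counted, cell count from propidium iodide DNA stain.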

Sequence of PI3K p110α/p85α (human) (P42336 whole entry): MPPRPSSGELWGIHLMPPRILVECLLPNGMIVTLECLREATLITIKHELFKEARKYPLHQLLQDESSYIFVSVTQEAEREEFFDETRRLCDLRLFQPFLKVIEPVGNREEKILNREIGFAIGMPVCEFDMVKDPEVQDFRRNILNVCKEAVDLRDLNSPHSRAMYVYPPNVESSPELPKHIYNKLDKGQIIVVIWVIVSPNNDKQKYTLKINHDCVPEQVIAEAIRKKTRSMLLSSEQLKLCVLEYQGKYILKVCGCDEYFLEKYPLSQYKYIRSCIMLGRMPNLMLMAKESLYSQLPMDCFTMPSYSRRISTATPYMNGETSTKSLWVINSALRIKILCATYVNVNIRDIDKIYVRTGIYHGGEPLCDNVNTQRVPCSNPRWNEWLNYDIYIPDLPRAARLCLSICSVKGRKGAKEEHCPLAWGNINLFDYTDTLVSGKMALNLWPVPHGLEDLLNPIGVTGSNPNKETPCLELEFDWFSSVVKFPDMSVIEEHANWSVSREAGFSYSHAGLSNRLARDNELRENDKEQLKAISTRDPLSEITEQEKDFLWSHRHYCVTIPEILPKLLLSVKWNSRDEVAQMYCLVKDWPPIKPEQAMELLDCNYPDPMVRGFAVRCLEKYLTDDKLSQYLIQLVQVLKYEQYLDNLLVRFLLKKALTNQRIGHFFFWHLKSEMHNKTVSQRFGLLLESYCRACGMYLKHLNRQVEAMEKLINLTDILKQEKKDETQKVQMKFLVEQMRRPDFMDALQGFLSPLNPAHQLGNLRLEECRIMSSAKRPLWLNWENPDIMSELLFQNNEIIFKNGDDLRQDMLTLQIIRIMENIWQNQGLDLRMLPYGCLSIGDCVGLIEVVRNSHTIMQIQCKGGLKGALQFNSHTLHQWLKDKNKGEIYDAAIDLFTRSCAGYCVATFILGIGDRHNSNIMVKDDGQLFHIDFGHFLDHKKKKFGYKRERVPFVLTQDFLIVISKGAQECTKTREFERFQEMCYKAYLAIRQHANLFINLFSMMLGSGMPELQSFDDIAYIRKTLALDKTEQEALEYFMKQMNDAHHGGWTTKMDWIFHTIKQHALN
Sequence of PI3K p110α/p85α (human) (P27986 whole entry partner): as the sequence (P27986 whole entry partner) above

Row | Compound | IC50 (PI3K p110α/p85α (human)) | IC50 (PI3K (p120γ) (human)) | IC50 (PI3K p110δ/p85α (human)) | IC50 (mTOR (human)) | IC50 (PI3K p110β/p85α (human); read-out: IC50 (PI3Kbeta)) | IC50 [1] | IC50 ([1]; 10 μM ATP, substrate p53) | IC50 [2] | IC50 (PI3K p110β/p85α (human))
1 | COc1cc2ncc3c(c2cc1-c1cnn(C)c1)n(-c1cnn(C)c1)c(=O)n3C [Compound Example 23, 7-Methoxy-3-methyl-1,8-bis-(1-methyl-1H-pyrazol-4-yl)-1,3-dihydroimidazo[4,5-c] quinolin-2-one] | > 20 µM | > 30 µM | > 30 µM | > 20 µM | > 30 µM | < 0.01 µM | < 0.01 µM | < 0.2 µM | 
2 | COc1cc2ncc3c(c2cc1-c1cnn(C)c1)n(-c1cn(C)nc1C)c(=O)n3C [Compound Example 5, 1-(1,3-Dimethyl-1H-pyrazol-4-yl)-7-methoxy-3-methyl-8-(1-methyl-1H-pyrazol-4-yl)-1,3-dihydroimidazo[4,5-c]-quinolin-2-one] | > 30 µM | > 30 µM | > 30 µM | > 30 µM | > 30 µM | < 0.001 µM | < 0.001 µM | < 0.2 µM | 
3 | COc1cc2ncc3c(c2cc1-c1cn[nH]c1)n(-c1ccncc1F)c(=O)n3C [Compound Example 9, 1-(3-Fluoropyridin-4-yl)-7-methoxy-3-methyl-8-(1H-pyrazol-4-yl)-1,3-dihydro-imidazo[4,5-c]quinolin-2-one] | > 30 µM | > 30 µM | > 30 µM | > 10 µM | > 30 µM | < 0.001 µM | < 0.001 µM | < 0.2 µM | 
4 | COc1cc2ncc3c(c2cc1-c1cn[nH]c1)n(-c1cn(C)nc1C)c(=O)n3C [Example 3] | > 30 µM | > 30 µM | > 30 µM | > 5 µM |  | < 0.001 µM | < 0.001 µM | < 0.2 µM | > 30 µM
5 | COc1cc2ncc3c(c2cc1-c1cn(C)nc1C)n(-c1cn(C)nc1C)c(=O)n3C [Compound Example 10, 1,8-Bis-(1,3-dimethyl-1H-pyrazol-4-yl)-7-methoxy-3-methyl-1,3-dihydroimidazo-[4,5-c]quinolin-2-one] | > 30 µM | > 30 µM | > 30 µM | > 30 µM | > 30 µM | < 0.001 µM | < 0.001 µM | < 0.2 µM | 
6 | CCn1cc(-c2cc3c(cc2OC)ncc2c3n(-c3cn(C)nc3C)c(=O)n2C)cn1 [Compound Example 21, 1-(1,3-Dimethyl-1H-pyrazol-4-yl)-8-(1-ethyl-1H-pyrazol-4-yl)-7-methoxy-3-methyl-1,3-dihydroimidazo[4,5-c] quinolin-2-one] | > 20 µM | > 300 µM | > 30 µM | > 5 µM | > 30 µM | < 0.001 µM | < 0.001 µM | < 0.2 µM | 
7 | CCn1cc(-c2cc3c(cc2OC)ncc2c3n(-c3ccncc3)c(=O)n2C)cn1 [compound 62, 8-(1-Ethyl-1H-pyrazol-4-yl)-7-methoxy-3-methyl-1-pyridin-4-yl-1,3-dihydro-imidazo[4,5-c]quinolin-2-one] | > 30 µM | > 30 µM | > 30 µM | > 30 µM | > 30 µM | < 0.01 µM | < 0.01 µM | 1 to 2 µM | 
8 | COc1cc2ncc3c(c2cc1-c1cnn(C)c1)n(-c1ccnn1C)c(=O)n3C [Compound Example 49, 7-Methoxy-3-methyl-1-(2-methyl-2H-pyrazol-3-yl)-8-(1-methyl-1H-pyrazol-4-yl)-1,3-dihydroimidazo[4,5-c]-quinolin-2-one] | > 30 µM | > 30 µM | > 30 µM | > 30 µM | > 30 µM | < 0.01 µM | < 0.01 µM | 0.2 to 1 µM | 
